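Grown in 96-well plates, cells were treated for 48 hours with each compound at five concentrations. Insufficient inhibition: endpoint recorded as highest concentration tested. Definition used: TGI = concentration required for complete inhibition of growth.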
Key:
Assay in all cases: growth of human tumour cells (NCI), 48 h
NCI-H460 lung = tested on: NCI-H460 lung
A498 renal = tested on: A498 renal
UACC-62 melanoma = tested on: UACC-62 melanoma
SK-MEL-2 melanoma = tested on: SK-MEL-2 melanoma
MDA-MB-231 breast = tested on: MDA-MB-231 breast
T-47D breast = tested on: T-47D breast
MCF7 breast = tested on: MCF7 breast
OVCAR-8 ovarian = tested on: OVCAR-8 ovarian
EKVX NSCLC = tested on: EKVX NSCLC
ACHN renal = tested on: ACHN renal
HT29 colon = tested on: HT29 colon
OVCAR-4 ovarian = tested on: OVCAR-4 ovarian
SF-268 CNS = tested on: SF-268 CNS
NCI-H522 lung = tested on: NCI-H522 lung
UACC-257 melanoma = tested on: UACC-257 melanoma
RPMI-8226 leukemia = tested on: RPMI-8226 leukemia
HOP-92 NSCLC = tested on: HOP-92 NSCLC
SF-295 CNS = tested on: SF-295 CNS
786-0 renal = tested on: 786-0 renal
LOX IMVI melanoma = tested on: LOX IMVI melanoma
MALME-3M melanoma = tested on: MALME-3M melanoma
DU-145 prostate = tested on: DU-145 prostate
K-562 leukemia = tested on: K-562 leukemia
HCC-2998 colon = tested on: HCC-2998 colon
NCI/ADR-RES ovarian = tested on: NCI/ADR-RES ovarian
HCT-15 colon = tested on: HCT-15 colon
MDA-MB-435 = tested on: MDA-MB-435
OVCAR-5 ovarian = tested on: OVCAR-5 ovarian
KM12 colon = tested on: KM12 colon
SK-MEL-5 melanoma = tested on: SK-MEL-5 melanoma
SW-620 colon = tested on: SW-620 colon
CAKI-1 renal = tested on: CAKI-1 renal
TK-10 renal = tested on: TK-10 renal
SNB-75 CNS = tested on: SNB-75 CNS
IGROV1 ovarian = tested on: IGROV1 ovarian
COLO 205 colon = tested on: COLO 205 colon
SK-OV-3 ovarian = tested on: SK-OV-3 ovarian
SN12C renal = tested on: SN12C renal
MDA-N = tested on: MDA-N
M14 melanoma = tested on: M14 melanoma
NCI-H226 lung = tested on: NCI-H226 lung
HS 578T breast = tested on: HS 578T breast
HOP-62 NSCLC = tested on: HOP-62 NSCLC
RXF 393 renal = tested on: RXF 393 renal
CCRF-CEM leukemia = tested on: CCRF-CEM leukemia
OVCAR-3 ovarian = tested on: OVCAR-3 ovarian
SR leukemia = tested on: SR leukemia
SF-539 CNS = tested on: SF-539 CNS
SK-MEL-28 melanoma = tested on: SK-MEL-28 melanoma
MOLT-4 leukemia = tested on: MOLT-4 leukemia
A549 NSCLC = tested on: A549 NSCLC
HCT-116 colon = tested on: HCT-116 colon
HL-60(TB) leukemia = tested on: HL-60(TB) leukemia
UO-31 renal = tested on: UO-31 renal
PC-3 prostate = tested on: PC-3 prostate
NCI-H23 lung = tested on: NCI-H23 lung
SNB-19 CNS = tested on: SNB-19 CNS
U251 CNS = tested on: U251 CNS

CC[C@H](C)[C@H]1NC(=O)[C@@H](NC(=O)[C@@H](CC(C)C)N(C)C(=O)C2CCCN2C(=O)[C@H](C)O)[C@@H](C)OC(=O)[C@@H]2Cc3ccccc3CN2C(=O)[C@@H]2CCCN2C(=O)[C@H](CC(C)C)NC(=O)[C@@H](C)C(=O)[C@H](C(C)C)OC(=O)C[C@@H]1O (stereo not given in full)
TGI (NCI-H460 lung): 5.09 µM
TGI (A498 renal): 5.96 µM
TGI (UACC-62 melanoma): 4.47 µM
TGI (SK-MEL-2 melanoma): 1.55 µM
TGI (MDA-MB-231 breast): 10.3 µM
TGI (T-47D breast): > 100 µM
TGI (MCF7 breast): 12.8 µM
TGI (OVCAR-8 ovarian): > 54.8 µM
TGI (EKVX NSCLC): > 55 µM
TGI (ACHN renal): 15.5 µM
TGI (HT29 colon): 10.7 µM
TGI (OVCAR-4 ovarian): > 25 µM
TGI (SF-268 CNS): 6.34 µM
TGI (NCI-H522 lung): > 49.3 µM
TGI (UACC-257 melanoma): 6.11 µM
TGI (RPMI-8226 leukemia): 10.4 µM
TGI (HOP-92 NSCLC): 28.8 µM
TGI (SF-295 CNS): > 28.6 µM
TGI (786-0 renal): 11.1 µM
TGI (LOX IMVI melanoma): 9.11 µM
TGI (MALME-3M melanoma): 5.16 µM
TGI (DU-145 prostate): 6.31 µM
TGI (K-562 leukemia): > 41.2 µM
TGI (HCC-2998 colon): 3.26 µM
TGI (NCI/ADR-RES ovarian): > 100 µM
TGI (HCT-15 colon): > 100 µM
TGI (MDA-MB-435): 8.1 µM
TGI (OVCAR-5 ovarian): 12.7 µM
TGI (KM12 colon): 5.13 µM
TGI (SK-MEL-5 melanoma): 2.86 µM
TGI (SW-620 colon): > 42.6 µM
TGI (CAKI-1 renal): > 50 µM
TGI (TK-10 renal): > 70.1 µM
TGI (SNB-75 CNS): 1.94 µM
TGI (IGROV1 ovarian): > 73.7 µM
TGI (COLO 205 colon): 2.61 µM
TGI (SK-OV-3 ovarian): > 42 µM
TGI (SN12C renal): 5.56 µM
TGI (MDA-N): 12.5 µM
TGI (M14 melanoma): 13.3 µM
TGI (NCI-H226 lung): 6.4 µM
TGI (HS 578T breast): > 38.4 µM
TGI (HOP-62 NSCLC): 12 µM
TGI (RXF 393 renal): 6.48 µM
TGI (CCRF-CEM leukemia): 1.66 µM
TGI (OVCAR-3 ovarian): 6.68 µM
TGI (SR leukemia): 1.08 µM
TGI (SF-539 CNS): 8.42 µM
TGI (SK-MEL-28 melanoma): 23.1 µM
TGI (MOLT-4 leukemia): 5 µM
TGI (A549 NSCLC): 21.3 µM
TGI (HCT-116 colon): 5.08 µM
TGI (HL-60(TB) leukemia): 0.433 µM

N#CCCC1(CCC#N)CCCCCCC(CCC#N)(CCC#N)C(=O)C1=O
TGI (NCI-H460 lung): > 100 µM
TGI (A498 renal): > 100 µM
TGI (UACC-62 melanoma): > 100 µM
TGI (UO-31 renal): 20.8 µM
TGI (SK-MEL-2 melanoma): > 100 µM
TGI (T-47D breast): > 100 µM
TGI (MCF7 breast): > 100 µM
TGI (OVCAR-8 ovarian): > 100 µM
TGI (EKVX NSCLC): > 100 µM
TGI (ACHN renal): > 100 µM
TGI (HT29 colon): > 100 µM
TGI (OVCAR-4 ovarian): > 100 µM
TGI (SF-268 CNS): > 100 µM
TGI (NCI-H522 lung): > 100 µM
TGI (UACC-257 melanoma): > 100 µM
TGI (HOP-92 NSCLC): > 100 µM
TGI (SF-295 CNS): > 100 µM
TGI (786-0 renal): > 100 µM
TGI (LOX IMVI melanoma): > 100 µM
TGI (MALME-3M melanoma): > 100 µM
TGI (DU-145 prostate): > 100 µM
TGI (K-562 leukemia): > 100 µM
TGI (HCC-2998 colon): > 100 µM
TGI (NCI/ADR-RES ovarian): > 100 µM
TGI (HCT-15 colon): > 100 µM
TGI (MDA-MB-435): > 100 µM
TGI (PC-3 prostate): > 100 µM
TGI (OVCAR-5 ovarian): > 100 µM
TGI (KM12 colon): > 100 µM
TGI (SK-MEL-5 melanoma): > 100 µM
TGI (SW-620 colon): > 100 µM
TGI (CAKI-1 renal): > 100 µM
TGI (TK-10 renal): > 100 µM
TGI (SNB-75 CNS): > 100 µM
TGI (IGROV1 ovarian): > 100 µM
TGI (COLO 205 colon): > 100 µM
TGI (SK-OV-3 ovarian): > 100 µM
TGI (SN12C renal): > 100 µM
TGI (MDA-N): > 100 µM
TGI (M14 melanoma): > 100 µM
TGI (HS 578T breast): > 100 µM
TGI (NCI-H23 lung): > 100 µM
TGI (HOP-62 NSCLC): > 100 µM
TGI (SNB-19 CNS): > 100 µM
TGI (U251 CNS): > 100 µM
TGI (RXF 393 renal): > 100 µM
TGI (OVCAR-3 ovarian): > 100 µM
TGI (SR leukemia): > 100 µM
TGI (SF-539 CNS): > 100 µM
TGI (SK-MEL-28 melanoma): > 100 µM
TGI (A549 NSCLC): > 100 µM
TGI (HCT-116 colon): > 100 µM

From PubChem BioAssay (NCI)
